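Where inhibition never reached the appropriate level, the endpoint shown equals the highest concentration tested. Otherwise, values were interpolated linearly from a five-concentration, 48-hour dose response in 96-well plates. Here, GI50 denotes the concentration required for 50% inhibition of growth. At the TGI there is no net growth.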
Key:
Experiment in all cases: NCI tumour cell line growth inhibition, 48 h
[1] = test system: NCI-H226 lung
[2] = test system: SK-OV-3 ovarian
[3] = test system: A549 NSCLC
[4] = test system: HOP-62 NSCLC
[5] = test system: M14 melanoma
[6] = test system: HCT-116 colon
[7] = test system: NCI-H460 lung
[8] = test system: LOX IMVI melanoma
[9] = test system: SNB-75 CNS
[10] = test system: BT-549 breast

SMILES	TGI [1]	TGI [2]	TGI [3]	TGI [4]	TGI [5]	TGI [6]	TGI [7]	TGI [8]	TGI [9]	GI50 [2]	GI50 [3]	GI50 [4]	GI50 [10]	TGI [10]	GI50 [6]	GI50 [7]	GI50 [9]	GI50 [5]	GI50 [8]	GI50 [1]
O=C1NC(=O)c2c1n(Cc1ccccc1)c(=O)n2Cc1ccccc1	> 100 µM	> 100 µM	> 100 µM	> 100 µM	> 100 µM	> 100 µM	> 100 µM	> 100 µM	> 100 µM	–	–	–	–	–	–	–	–	–	–	–
CC1=N/C(=C\c2ccc(/C=C3/N=C(C)OC3=O)cc2)C(=O)O1	–	> 100 µM	> 100 µM	> 100 µM	> 100 µM	> 100 µM	–	> 100 µM	> 100 µM	–	–	–	–	–	–	–	–	–	–	–
CCc1cccc(C)c1NC(=O)CCc1nc(=S)[nH][nH]1	> 100 µM	> 100 µM	> 100 µM	> 100 µM	> 100 µM	> 100 µM	> 100 µM	> 100 µM	–	–	–	–	–	–	–	–	–	–	–	–
N#C/C(=C\c1cc(OCc2ccccc2)c(OCc2ccccc2)cn1)C(N)=O	> 100 µM	> 100 µM	> 100 µM	> 100 µM	> 100 µM	> 100 µM	> 100 µM	> 100 µM	> 100 µM	–	–	–	–	–	–	–	–	–	–	–
O=C1[C@@H]2C(c3c(Cl)cccc3Cl)=NO[C@@H]2C(=O)N1c1ccc(Cc2ccc(N3C(=O)[C@H]4C(c5c(Cl)cccc5Cl)=NO[C@H]4C3=O)cc2)cc1	> 100 µM	> 100 µM	> 100 µM	> 100 µM	> 100 µM	–	> 100 µM	> 100 µM	> 100 µM	–	–	–	–	–	–	–	–	–	–	–
Cc1nc(N)nc(CCC(=O)Nc2cccc(C(F)(F)F)c2)c1-c1ccc(Cl)cc1	> 100 µM	> 100 µM	> 100 µM	> 100 µM	> 100 µM	> 100 µM	> 100 µM	–	> 100 µM	–	–	–	–	–	–	–	–	–	–	–
CCc1ccccc1NC(=O)c1cccc([N+](=O)[O-])c1O	88.7 µM	> 100 µM	> 100 µM	58 µM	> 100 µM	87.5 µM	71 µM	55.6 µM	71.8 µM	–	–	–	–	–	–	–	–	–	–	–
Nc1ncc(Cc2ccc3c(c2)OCO3)c(N)n1	> 100 µM	> 100 µM	> 100 µM	> 100 µM	> 100 µM	> 100 µM	> 100 µM	> 100 µM	–	–	–	–	–	–	–	–	–	–	–	–
COC(=O)OC1C(O[C@H]2C[C@H]3[C@@H]4CC=C5C[C@@H](O)CC[C@]5(C)[C@H]4CC[C@]3(C)[C@H]2[C@H](C)C(=O)CCC(C)C)OCC(O)C1OC1OCC(O)C(O)C1OC(=O)c1ccc(OC)cc1 (some centres not stated)	–	0.611 µM	5.24 µM	0.673 µM	–	> 27.5 µM	0.332 µM	–	3.77 µM	0.0073 µM	0.0125 µM	0.0102 µM	< 0.00275 µM	3.45 µM	0.00886 µM	0.00957 µM	< 0.00275 µM	–	–	–
Cc1c(C(=N)C(C#N)C#N)c(=N)oc2c1ccc1ccccc12	–	63.3 µM	> 100 µM	77.6 µM	> 100 µM	> 100 µM	> 100 µM	38.2 µM	48.9 µM	21.3 µM	32.9 µM	21.7 µM	32.2 µM	> 100 µM	17.6 µM	27.2 µM	13.6 µM	23.9 µM	11.9 µM	–
O=[N+]([O-])c1ccc(Cl)c2c([N+](=O)[O-])cccc12	–	7.48 µM	> 10 µM	> 10 µM	–	5.32 µM	–	> 10 µM	> 10 µM	–	–	–	–	–	–	–	–	–	–	–
CCN(CC)CCCNc1ccc(C)c2sc3ccccc3c(=O)c12	–	4.82 µM	1.99 µM	2.55 µM	0.401 µM	1.59 µM	1.71 µM	1.58 µM	26.1 µM	1.51 µM	0.554 µM	1.14 µM	1.83 µM	11.1 µM	0.407 µM	0.46 µM	5.2 µM	0.193 µM	0.423 µM	–
CCN(C)c1nc(N(C)CC)c2nc(N(C)CC)nc(N(C)CC)c2n1	–	> 100 µM	> 100 µM	> 100 µM	> 100 µM	> 100 µM	> 100 µM	> 100 µM	> 100 µM	–	–	–	–	> 100 µM	–	–	–	–	–	–
COC(=O)C1C(C(=O)OC)C2C(=O)C3C(C(=O)OC)C(C(=O)OC)C3C(=O)C12 (configuration not stated)	> 100 µM	> 100 µM	> 100 µM	> 100 µM	–	> 100 µM	> 100 µM	> 100 µM	–	–	–	–	–	–	–	–	–	–	–	–
N#CC(C(=O)C(=O)Nc1c(Cl)cccc1Cl)c1ccccc1 (configuration not stated)	> 100 µM	> 100 µM	> 100 µM	> 100 µM	> 100 µM	–	> 100 µM	–	> 100 µM	> 100 µM	> 100 µM	> 100 µM	–	–	–	> 100 µM	> 100 µM	> 100 µM	> 100 µM	> 100 µM
COc1cc(Nc2cnc3ccc(C(F)(F)F)cc3n2)cc(OC)c1OC	> 100 µM	–	> 100 µM	> 100 µM	–	> 100 µM	> 100 µM	23.2 µM	–	–	–	–	–	–	–	–	–	–	–	–

SMILES	TGI [1]	TGI [2]	TGI [3]	TGI [4]	TGI [5]	TGI [6]	TGI [7]	TGI [8]	TGI [9]	GI50 [2]	GI50 [3]	GI50 [4]	GI50 [10]	TGI [10]	GI50 [6]	GI50 [7]	GI50 [9]	GI50 [5]	GI50 [8]	GI50 [1]
O=[N+]([O-])c1ccccc1C1SCc2nc3ccccc3n21 (configuration not stated)	–	> 100 µM	> 100 µM	> 100 µM	–	–	> 100 µM	> 100 µM	–	–	–	–	–	–	–	–	–	–	–	–
CCCCCCCCCCCC[N+]1(CCCCCCCCCCCC)CCCC(C)C1 (configuration not stated)	–	–	0.736 µM	–	–	1.21 µM	–	1.39 µM	1.63 µM	–	0.172 µM	–	0.817 µM	3.25 µM	0.185 µM	–	0.349 µM	–	0.348 µM	–
Nc1ncnc2c1N=C(c1ccc3c(c1)OCO3)CC(c1ccc(Cl)cc1)N2 (configuration not stated)	> 100 µM	> 100 µM	30.1 µM	42.6 µM	> 100 µM	22.5 µM	> 100 µM	33 µM	38.3 µM	92.6 µM	11.6 µM	16.6 µM	–	–	10.7 µM	21.8 µM	5.22 µM	25.5 µM	10.1 µM	44.8 µM
Cc1ccc2c(c1)CN1c3ccc(C)cc3CN2C1c1ccccc1O	> 100 µM	> 100 µM	> 100 µM	> 100 µM	> 100 µM	> 100 µM	> 100 µM	> 100 µM	9.08 µM	–	–	–	–	–	–	–	–	–	–	–
O=C(Nc1ccc(N=C=S)cc1Cl)c1cc(Br)cc(Br)c1O	41.5 µM	> 100 µM	69.7 µM	84.4 µM	> 100 µM	31.7 µM	> 100 µM	–	> 100 µM	–	–	–	–	–	–	–	–	–	–	–
COC(=O)/C=C(/C(=O)OC)C1(C)c2cc(C(=O)OC)c(C(=O)OC)c(N)c2C(=N)N1c1ccccc1 (configuration not stated)	89.9 µM	> 100 µM	> 100 µM	> 100 µM	33.6 µM	29.3 µM	> 100 µM	35 µM	81 µM	–	–	–	–	–	–	–	–	–	–	–
OCc1cc2c(cn1)[nH]c1ccc(NCc3ccccc3)cc12	54.4 µM	86.2 µM	> 100 µM	> 100 µM	37.5 µM	38.4 µM	80.2 µM	> 100 µM	69.7 µM	–	–	–	–	–	–	–	–	–	–	–
O=C(NC1C(=O)NNC1c1cccc([N+](=O)[O-])c1)c1ccccc1 (configuration not stated)	> 100 µM	–	> 100 µM	> 100 µM	> 100 µM	> 100 µM	> 100 µM	> 100 µM	> 100 µM	–	–	–	–	–	–	–	–	–	–	–
O=C(NCCNCCO)c1ccc2c(c1)oc1cc3ccccc3c(=O)n12	–	> 50 µM	> 50 µM	> 50 µM	> 50 µM	> 50 µM	> 50 µM	40.6 µM	44.4 µM	> 50 µM	16.2 µM	> 50 µM	18.8 µM	> 50 µM	22.8 µM	25.4 µM	15 µM	> 50 µM	17.4 µM	–
COC(=O)C1C(=O)O[C@@H](c2ccc3c(c2)OCO3)C1C(=O)OC (mixture of isomers)	> 100 µM	> 100 µM	> 100 µM	> 100 µM	> 100 µM	> 100 µM	> 100 µM	> 100 µM	> 100 µM	–	–	–	–	–	–	–	–	–	–	–
NNC(=O)C(=O)N/N=C1/CCCC1C(=O)CCC(=O)Nc1ccc(Cl)cc1 (configuration not stated)	> 100 µM	> 100 µM	> 100 µM	> 100 µM	> 100 µM	> 100 µM	> 100 µM	–	> 100 µM	–	–	–	–	–	–	–	–	–	–	–
CCOC(=O)c1nc(C)oc1C(F)(F)F	> 100 µM	> 100 µM	> 100 µM	> 100 µM	> 100 µM	> 100 µM	> 100 µM	> 100 µM	> 100 µM	–	–	–	–	–	–	–	–	–	–	–
COc1nc2c(c(O)c(C)c(=O)n2OC2OCC(OC(C)=O)C(OC(C)=O)C2OC(C)=O)c(=O)n1C (configuration not stated)	> 100 µM	–	> 100 µM	> 100 µM	> 100 µM	> 100 µM	> 100 µM	> 100 µM	> 100 µM	–	–	–	–	–	–	–	–	–	–	–
COc1cc(CNc2nc3cc(N)cc(N)c3nc2-c2ccccc2)cc(OC)c1	–	54.2 µM	> 100 µM	31.3 µM	49.3 µM	11.3 µM	> 100 µM	81.7 µM	–	15.1 µM	33.2 µM	13.5 µM	9.7 µM	> 100 µM	3.08 µM	10.5 µM	–	10.1 µM	4.51 µM	–
C[C@]12Cc3cn[nH]c3C(=O)C1CC[C@@H]1C2CC[C@@]2(C)C1CC[C@@H]2O (some centres not stated)	> 100 µM	> 100 µM	> 100 µM	> 100 µM	> 100 µM	> 100 µM	> 100 µM	> 100 µM	> 100 µM	–	–	–	–	–	–	–	–	–	–	–

Source: PubChem BioAssay (NCI)
